According to ChEMBL document CHEMBL1201862, “PubChem BioAssay data set” (2004):
Where a name gives a salt, the structure may show the parent alone. Active and inactive are the calls of the source.

Columns and labels:
[1] = target: T1, Oxysterols receptor LXR-beta (Homo sapiens, UniProt P55055); assay: LXR agonists, Gal4 luciferase reporter, dose response, counter-screen for ssDAF-12 agonist project, cell-based, luminescence, HEK293, S. stercoralis campaign (AID 720737); type: functional; conditions: read-out: IC50 (the source's name)
T1 sequence (P55055 whole entry): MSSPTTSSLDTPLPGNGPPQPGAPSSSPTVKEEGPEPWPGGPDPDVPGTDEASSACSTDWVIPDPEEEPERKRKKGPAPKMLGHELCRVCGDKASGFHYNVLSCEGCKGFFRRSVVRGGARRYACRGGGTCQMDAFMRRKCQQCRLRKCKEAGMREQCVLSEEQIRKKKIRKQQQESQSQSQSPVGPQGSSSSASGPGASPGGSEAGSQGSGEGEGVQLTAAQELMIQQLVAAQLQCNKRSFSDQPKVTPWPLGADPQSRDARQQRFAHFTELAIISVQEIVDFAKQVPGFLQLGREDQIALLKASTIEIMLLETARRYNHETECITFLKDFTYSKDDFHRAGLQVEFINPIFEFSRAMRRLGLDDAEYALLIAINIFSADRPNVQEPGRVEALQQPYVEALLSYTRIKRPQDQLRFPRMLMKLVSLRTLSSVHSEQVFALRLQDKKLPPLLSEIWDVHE

[2] = target: T1, Oxysterols receptor LXR-beta; type: functional, cell-based
[3] = Luminescence-based cell-based high throughput dose response assay to identify activators of the DAF-12 from the parasite S. stercoralis (ssDAF-12).; type: functional
Protein skinhead-1 = target: T2, Protein skinhead-1 (Caenorhabditis elegans, UniProt P34707); type: functional
T2 sequence (P34707 whole entry): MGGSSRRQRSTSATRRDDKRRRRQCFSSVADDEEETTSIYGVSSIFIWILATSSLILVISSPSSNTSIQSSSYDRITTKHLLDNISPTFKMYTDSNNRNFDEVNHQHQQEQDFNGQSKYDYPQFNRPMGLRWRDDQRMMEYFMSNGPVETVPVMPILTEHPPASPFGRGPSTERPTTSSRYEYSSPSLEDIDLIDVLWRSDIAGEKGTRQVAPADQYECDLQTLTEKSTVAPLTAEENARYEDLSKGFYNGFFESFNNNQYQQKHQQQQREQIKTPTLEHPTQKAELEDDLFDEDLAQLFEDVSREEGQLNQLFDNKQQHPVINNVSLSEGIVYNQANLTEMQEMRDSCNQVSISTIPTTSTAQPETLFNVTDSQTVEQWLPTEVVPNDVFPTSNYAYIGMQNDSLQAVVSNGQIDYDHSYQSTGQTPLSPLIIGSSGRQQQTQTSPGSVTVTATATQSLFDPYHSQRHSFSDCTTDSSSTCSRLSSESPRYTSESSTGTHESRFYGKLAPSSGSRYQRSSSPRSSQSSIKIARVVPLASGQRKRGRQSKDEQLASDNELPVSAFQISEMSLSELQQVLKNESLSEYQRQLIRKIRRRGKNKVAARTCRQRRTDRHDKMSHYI

[4] = THP-1 cell cytotoxicity, dose response, cytotoxicity control for Vif-APOBEC3G degradation inhibitor project, THP-1 cells (AID 1117359); type: functional; conditions: Human immunodeficiency virus 1, THP-1
Cytochrome P450 2C9 = Cytochrome P450 2C9 (Homo sapiens, UniProt P11712)
Cytochrome P450 2D6 = Cytochrome P450 2D6 (Homo sapiens, UniProt P10635);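 also: CYP2D6 member of a cytochrome P450 panel assay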
Vero = Vero cell cytotoxicity, cytotoxicity control for flavivirus capping enzyme inhibitors (AID 588742); type: functional; conditions: Chlorocebus sabaeus
Protein Tat = target: T3, Protein Tat (Human immunodeficiency virus type 1 group M subtype B (isolate HXB2)(HIV-1), UniProt P04608); type: functional;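 also: tat binding to TAR RNA read out by fluorescence polarization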
T3 sequence (P04608 whole entry): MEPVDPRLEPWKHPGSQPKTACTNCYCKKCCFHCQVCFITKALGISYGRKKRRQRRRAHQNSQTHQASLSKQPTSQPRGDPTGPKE

[5] = HeLa 2N DNA content increase, dose response, cell-based, IC50 (AID 1117349); type: functional
[6] = HeLa 4N DNA content increase, dose response, cell-based, IC50 (AID 1117351); type: functional
Paired box protein Pax-8 = Paired box protein Pax-8 (Homo sapiens, UniProt Q06710); assay: inhibitors of PAX8-driven TPO luciferase reporter, dose response, RMG-I cells, cherry-pick (AID 687027); type: functional, cell-based;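 also: luciferase reporter driven by Pax8 target thyroperoxidase promoter measured by SteadyGlo luminescence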
[7] = target: T4, Histone-lysine N-methyltransferase NSD2 (Homo sapiens, UniProt O96028); type: biochemical
T4 sequence (O96028 whole entry): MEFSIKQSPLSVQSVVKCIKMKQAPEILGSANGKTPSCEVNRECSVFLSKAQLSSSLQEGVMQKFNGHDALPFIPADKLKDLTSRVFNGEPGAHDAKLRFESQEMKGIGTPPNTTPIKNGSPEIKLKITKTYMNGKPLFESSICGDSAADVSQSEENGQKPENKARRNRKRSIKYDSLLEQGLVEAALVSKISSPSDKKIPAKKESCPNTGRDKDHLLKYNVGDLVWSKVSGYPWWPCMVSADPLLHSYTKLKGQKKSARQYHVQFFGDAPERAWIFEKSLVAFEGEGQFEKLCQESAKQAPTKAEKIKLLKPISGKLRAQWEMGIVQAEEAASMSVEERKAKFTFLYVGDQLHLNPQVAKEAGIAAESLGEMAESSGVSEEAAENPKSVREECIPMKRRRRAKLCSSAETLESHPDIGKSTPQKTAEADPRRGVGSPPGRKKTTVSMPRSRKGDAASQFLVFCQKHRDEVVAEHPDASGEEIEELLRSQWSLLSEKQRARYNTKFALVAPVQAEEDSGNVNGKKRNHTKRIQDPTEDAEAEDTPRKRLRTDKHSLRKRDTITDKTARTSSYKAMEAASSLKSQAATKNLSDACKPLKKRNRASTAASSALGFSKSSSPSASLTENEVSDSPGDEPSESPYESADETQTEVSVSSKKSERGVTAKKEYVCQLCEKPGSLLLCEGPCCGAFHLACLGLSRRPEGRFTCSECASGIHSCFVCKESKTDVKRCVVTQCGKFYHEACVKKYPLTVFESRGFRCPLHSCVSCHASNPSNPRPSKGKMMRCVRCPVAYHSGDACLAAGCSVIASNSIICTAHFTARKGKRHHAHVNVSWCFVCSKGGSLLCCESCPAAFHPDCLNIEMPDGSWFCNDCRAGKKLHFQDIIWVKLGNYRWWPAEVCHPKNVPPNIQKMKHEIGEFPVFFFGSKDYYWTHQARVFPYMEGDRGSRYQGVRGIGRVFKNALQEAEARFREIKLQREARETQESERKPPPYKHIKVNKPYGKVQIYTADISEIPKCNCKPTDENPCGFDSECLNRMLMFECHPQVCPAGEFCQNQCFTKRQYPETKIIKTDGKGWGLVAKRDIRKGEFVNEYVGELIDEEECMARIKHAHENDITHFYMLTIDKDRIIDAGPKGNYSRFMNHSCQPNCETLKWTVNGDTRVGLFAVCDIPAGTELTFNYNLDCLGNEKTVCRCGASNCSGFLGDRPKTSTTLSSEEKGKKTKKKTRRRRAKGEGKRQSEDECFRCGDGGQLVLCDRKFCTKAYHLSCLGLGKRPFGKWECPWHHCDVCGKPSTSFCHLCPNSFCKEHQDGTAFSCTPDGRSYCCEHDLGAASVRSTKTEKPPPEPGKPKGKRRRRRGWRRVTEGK

Caspase-6 = target: T5, Caspase-6 (Homo sapiens, UniProt P55212); assay: human caspase-6 inhibitors, dose response, biochemical, VEID-R110 fluorescence, cherry-pick (AID 720632)
T5 sequence (P55212 whole entry): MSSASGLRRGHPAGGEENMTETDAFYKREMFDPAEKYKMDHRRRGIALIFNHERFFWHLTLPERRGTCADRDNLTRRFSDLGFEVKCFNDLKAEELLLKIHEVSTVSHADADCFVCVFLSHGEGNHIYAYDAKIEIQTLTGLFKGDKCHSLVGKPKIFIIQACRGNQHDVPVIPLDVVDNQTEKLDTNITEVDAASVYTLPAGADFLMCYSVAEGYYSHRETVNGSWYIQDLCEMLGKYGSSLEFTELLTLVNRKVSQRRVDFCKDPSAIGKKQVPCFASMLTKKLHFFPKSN

[8] = target: Glucose-6-phosphate 1-dehydrogenase (Homo sapiens, UniProt P11413); assay: human G6PD enzyme inhibitors, dose response, selectivity assay for P. falciparum G6PD inhibitor project, biochemical, fluorescence (AID 504792); type: functional
Large T antigen = Large T antigen (Simian virus 40, UniProt P03070); type: functional, Betapolyomavirus macacae;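 also: Confirmatory-stage PubChem screen for compounds that inhibit SV40 T antigen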
Genome polyprotein = Genome polyprotein (dengue virus type 2, UniProt P29990); assay: Dengue-2 NS5 methyltransferase inhibitors, primary screen, biochemical, confirmation dose response (AID 588689); type: functional
[9] = NIH:OVCAR-3 ovarian cancer cell cytotoxicity, dose response, PAX8 inhibitor project, plate reader, dry powder samples (AID 743044); type: functional, cell-based
[10] = cytotoxicity in OVCAR8 ovarian cancer cells, dose response, PAX8 project, cell-based, plate reader, dry powder samples (AID 743197); type: functional; conditions: OVCAR-8
Streptococcus = assay: Group A Streptococcus viability loss, dose response, counter-screen for streptokinase expression inhibitor project, luminescence, BacTiterGlo (AID 1915); type: functional, organism-based;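 also: potency for reduction of bacterial viability or growth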
[11] = C. albicans growth with fluconazole, confirmation, fluorescence, retest (AID 2467); type: functional, cell-based
[12] = test system: Streptococcus sp. 'group A'; assay: growth inhibition of control SK(-) GAS strain, dose response, counter-screen for streptokinase expression inhibitor project, luminescence, kanamycin, BacTiterGlo, confirmation (AID 1900); type: functional, organism-based
[13] = target: T6, Heat shock factor protein 1 (Mus musculus, UniProt P38532); assay: inhibition of MG132-induced HSE-luciferase signal, confirmation, cell-based, NIH3T3, luminescence, dose retest (AID 2382); type: functional;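 also: NIH3T3 fibroblasts with HSF1-driven luciferase reporter stressed by proteasome inhibitor MG132; luminescence from HSF1-driven luciferase expression after 8 hours of MG132 stress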
T6 sequence (P38532 whole entry): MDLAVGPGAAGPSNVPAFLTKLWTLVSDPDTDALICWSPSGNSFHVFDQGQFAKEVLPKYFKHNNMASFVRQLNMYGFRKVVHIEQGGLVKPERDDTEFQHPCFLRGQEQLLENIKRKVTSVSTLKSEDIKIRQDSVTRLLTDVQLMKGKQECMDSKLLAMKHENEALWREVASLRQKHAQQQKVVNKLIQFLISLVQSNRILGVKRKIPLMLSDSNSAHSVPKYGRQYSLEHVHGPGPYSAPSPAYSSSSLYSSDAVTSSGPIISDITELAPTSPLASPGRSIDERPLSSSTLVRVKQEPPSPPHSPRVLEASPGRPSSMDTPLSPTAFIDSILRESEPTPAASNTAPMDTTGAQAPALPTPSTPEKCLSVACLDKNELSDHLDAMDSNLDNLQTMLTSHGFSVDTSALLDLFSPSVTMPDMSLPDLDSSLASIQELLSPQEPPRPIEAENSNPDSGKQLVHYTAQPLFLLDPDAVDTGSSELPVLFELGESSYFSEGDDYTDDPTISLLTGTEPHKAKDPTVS

[14] = NIH-3T3 fibroblast cytotoxicity, dose response, cytotoxicity control, cell-based, fluorescence, Alamar Blue, secondary assay (AID 2327); type: functional;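 also: NIH-3T3 mouse fibroblasts cultured with fluconazole at 8 µg/mL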
Streptokinase A = target: T7, Streptokinase A (Streptococcus pyogenes serotype M1, UniProt P10520); assay: S. pyogenes streptokinase expression inhibitors, potency, dose response, plasminogen activation absorbance, OD405 (AID 1914); type: functional, Streptococcus pyogenes M1 GAS;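 also: secreted streptokinase activity via plasminogen activation per viability signal from cell pellet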
T7 sequence (P10520 whole entry): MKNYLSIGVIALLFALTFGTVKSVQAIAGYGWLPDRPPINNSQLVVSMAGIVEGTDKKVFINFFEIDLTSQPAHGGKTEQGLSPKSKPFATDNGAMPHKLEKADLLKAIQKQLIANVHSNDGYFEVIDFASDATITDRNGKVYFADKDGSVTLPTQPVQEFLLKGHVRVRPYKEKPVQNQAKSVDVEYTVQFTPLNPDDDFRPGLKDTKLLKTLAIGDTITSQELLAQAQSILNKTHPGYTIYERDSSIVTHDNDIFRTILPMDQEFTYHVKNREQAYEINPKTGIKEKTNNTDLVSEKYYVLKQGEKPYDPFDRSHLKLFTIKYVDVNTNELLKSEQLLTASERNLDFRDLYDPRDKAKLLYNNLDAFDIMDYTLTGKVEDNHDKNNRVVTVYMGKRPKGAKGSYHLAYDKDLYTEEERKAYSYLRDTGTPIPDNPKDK

Sequence of Paired box protein Pax-8 (Q06710 whole entry): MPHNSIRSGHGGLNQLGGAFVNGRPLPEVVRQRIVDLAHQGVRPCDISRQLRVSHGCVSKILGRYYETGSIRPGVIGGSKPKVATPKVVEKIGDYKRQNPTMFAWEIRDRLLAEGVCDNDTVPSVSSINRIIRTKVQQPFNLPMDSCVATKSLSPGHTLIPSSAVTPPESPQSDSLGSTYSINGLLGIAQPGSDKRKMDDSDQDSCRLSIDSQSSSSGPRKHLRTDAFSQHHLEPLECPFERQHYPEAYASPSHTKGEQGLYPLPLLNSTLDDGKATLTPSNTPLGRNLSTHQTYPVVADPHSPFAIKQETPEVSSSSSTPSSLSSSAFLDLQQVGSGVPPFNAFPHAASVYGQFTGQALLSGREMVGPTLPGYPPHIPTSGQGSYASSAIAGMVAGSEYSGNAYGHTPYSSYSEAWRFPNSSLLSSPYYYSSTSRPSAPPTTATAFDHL
Sequence of Large T antigen (P03070 whole entry): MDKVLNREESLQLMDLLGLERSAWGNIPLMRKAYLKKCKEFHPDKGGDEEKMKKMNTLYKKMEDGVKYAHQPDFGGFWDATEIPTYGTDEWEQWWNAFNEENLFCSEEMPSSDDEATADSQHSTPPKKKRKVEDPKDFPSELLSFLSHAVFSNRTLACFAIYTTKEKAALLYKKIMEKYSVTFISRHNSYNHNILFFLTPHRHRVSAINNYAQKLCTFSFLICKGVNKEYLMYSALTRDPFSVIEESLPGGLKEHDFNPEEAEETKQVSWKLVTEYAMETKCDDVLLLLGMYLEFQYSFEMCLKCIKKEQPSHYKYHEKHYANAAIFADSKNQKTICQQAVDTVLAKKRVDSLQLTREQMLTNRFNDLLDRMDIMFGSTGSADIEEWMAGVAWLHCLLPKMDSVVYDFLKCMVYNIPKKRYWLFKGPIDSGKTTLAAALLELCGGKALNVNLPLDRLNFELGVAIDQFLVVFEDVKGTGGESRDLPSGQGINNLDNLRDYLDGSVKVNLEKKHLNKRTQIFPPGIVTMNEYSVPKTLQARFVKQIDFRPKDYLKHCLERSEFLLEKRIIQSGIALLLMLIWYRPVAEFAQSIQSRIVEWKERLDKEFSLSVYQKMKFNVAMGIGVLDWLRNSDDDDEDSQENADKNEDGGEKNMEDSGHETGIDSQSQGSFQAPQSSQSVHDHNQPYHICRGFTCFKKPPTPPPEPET
Sequence of Genome polyprotein (P29990 2492-3391 limits assumed): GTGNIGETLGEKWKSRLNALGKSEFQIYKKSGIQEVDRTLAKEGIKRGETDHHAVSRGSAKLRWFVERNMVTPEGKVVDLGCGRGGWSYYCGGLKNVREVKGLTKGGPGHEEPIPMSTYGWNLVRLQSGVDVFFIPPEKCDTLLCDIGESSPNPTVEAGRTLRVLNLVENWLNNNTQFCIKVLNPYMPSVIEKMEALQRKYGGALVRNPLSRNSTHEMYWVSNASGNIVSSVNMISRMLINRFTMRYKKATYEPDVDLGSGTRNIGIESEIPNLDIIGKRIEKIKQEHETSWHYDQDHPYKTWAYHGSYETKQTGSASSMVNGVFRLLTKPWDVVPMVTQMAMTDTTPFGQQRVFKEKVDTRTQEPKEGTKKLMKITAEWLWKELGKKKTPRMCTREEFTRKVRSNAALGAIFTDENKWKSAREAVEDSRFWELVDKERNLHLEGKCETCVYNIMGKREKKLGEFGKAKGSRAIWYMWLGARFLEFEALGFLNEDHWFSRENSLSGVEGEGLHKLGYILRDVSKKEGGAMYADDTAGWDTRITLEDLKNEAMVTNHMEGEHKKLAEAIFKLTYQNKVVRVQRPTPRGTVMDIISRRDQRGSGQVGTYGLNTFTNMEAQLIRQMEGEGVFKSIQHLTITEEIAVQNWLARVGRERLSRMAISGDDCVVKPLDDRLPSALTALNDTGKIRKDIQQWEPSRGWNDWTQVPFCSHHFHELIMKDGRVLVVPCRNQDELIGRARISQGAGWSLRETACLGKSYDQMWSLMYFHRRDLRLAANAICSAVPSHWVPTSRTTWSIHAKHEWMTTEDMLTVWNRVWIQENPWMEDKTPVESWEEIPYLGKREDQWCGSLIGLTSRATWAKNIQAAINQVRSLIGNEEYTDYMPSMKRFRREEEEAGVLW
Sequence of Cytochrome P450 2D6 (P10635 whole entry): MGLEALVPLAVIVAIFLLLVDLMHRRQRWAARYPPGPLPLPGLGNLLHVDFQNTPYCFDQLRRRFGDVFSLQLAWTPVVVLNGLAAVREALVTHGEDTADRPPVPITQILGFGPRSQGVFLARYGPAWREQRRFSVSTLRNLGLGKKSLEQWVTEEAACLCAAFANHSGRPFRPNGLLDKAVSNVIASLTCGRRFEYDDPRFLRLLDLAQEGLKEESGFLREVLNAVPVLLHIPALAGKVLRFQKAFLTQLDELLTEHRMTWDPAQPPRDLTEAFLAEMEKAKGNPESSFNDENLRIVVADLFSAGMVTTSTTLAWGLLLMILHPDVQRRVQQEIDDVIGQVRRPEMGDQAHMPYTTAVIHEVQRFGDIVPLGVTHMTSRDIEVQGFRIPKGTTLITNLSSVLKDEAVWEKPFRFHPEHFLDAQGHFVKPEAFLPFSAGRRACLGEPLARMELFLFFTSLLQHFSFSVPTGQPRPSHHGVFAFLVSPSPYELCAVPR
Sequence of Glucose-6-phosphate 1-dehydrogenase (P11413 whole entry): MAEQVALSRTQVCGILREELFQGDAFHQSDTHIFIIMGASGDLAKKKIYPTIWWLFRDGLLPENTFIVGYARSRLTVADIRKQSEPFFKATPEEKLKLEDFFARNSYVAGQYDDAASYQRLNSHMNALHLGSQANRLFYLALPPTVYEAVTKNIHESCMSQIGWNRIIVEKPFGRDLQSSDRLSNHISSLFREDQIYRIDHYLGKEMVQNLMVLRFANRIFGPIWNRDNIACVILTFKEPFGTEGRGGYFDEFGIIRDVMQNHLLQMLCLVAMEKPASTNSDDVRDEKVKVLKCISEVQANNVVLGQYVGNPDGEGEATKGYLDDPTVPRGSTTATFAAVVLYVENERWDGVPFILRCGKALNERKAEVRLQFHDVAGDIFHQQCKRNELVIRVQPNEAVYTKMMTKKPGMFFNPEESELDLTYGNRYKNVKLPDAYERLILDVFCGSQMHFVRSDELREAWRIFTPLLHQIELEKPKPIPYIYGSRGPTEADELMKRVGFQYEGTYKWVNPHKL
Sequence of Cytochrome P450 2C9 (P11712 whole entry): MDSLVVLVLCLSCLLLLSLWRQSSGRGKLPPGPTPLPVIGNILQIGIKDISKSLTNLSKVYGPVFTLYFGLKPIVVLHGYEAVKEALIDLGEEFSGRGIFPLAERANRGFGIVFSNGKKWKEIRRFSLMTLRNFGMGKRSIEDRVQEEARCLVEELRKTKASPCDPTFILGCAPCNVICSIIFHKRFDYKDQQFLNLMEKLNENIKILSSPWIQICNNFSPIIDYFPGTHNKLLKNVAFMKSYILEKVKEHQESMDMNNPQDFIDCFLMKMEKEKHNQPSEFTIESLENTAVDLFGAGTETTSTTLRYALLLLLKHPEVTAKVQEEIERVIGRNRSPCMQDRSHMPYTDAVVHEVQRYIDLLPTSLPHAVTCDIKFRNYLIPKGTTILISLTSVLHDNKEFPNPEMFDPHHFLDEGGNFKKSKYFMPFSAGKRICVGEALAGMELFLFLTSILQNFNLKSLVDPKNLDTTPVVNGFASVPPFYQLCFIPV

## Fc1ccc(-c2nc3n(n2)Cc2ccccc2-3)cc1
cells
  EC50: > 67.6 µM (inactive)
[1]
  EC50: > 67.6 µM (inactive)
[2]
  EC50: > 67.6 µM (inactive)
[3]
  IC50: > 67.6 µM (inactive)

## O=C(/C=C/c1cccs1)N1CCc2ccccc21
cells
  EC50: > 67.5 µM (inactive)
[1]
  EC50: > 67.5 µM (inactive)
[2]
  EC50: > 67.5 µM (inactive)
Protein skinhead-1
  IC50: > 100 µM (inactive)
[3]
  IC50: > 67.5 µM (inactive)

## O=C(O)c1cccc(N2C(=O)c3ccc(C(=O)c4cccc([N+](=O)[O-])c4)cc3C2=O)c1
[1]
  EC50: > 67.5 µM (inactive)
[3]
  IC50: > 67.5 µM (inactive)

## CN=c1ccc(Br)cc(C(=O)/C=C/c2ccc3c(c2)OCO3)c1O
[4]
  CC50: > 40 µM (active)
Cytochrome P450 2C9
  AC50: inconclusive
Cytochrome P450 2D6
  AC50: 10 µM (inconclusive)
Vero
  CC50: > 40 µM (active)
Protein Tat
  IC50: 40.7 µM (inconclusive)

## CN(C)N=Nc1[nH]cnc1C(N)=O
[5]
  IC50: > 10 µM (inactive)
[6]
  IC50: > 10 µM (inactive)
Paired box protein Pax-8
  AC50: 5.34 µM (active)

## O=C1NC(=O)N(c2ccccc2)C(=O)/C1=C/c1ccc([N+](=O)[O-])s1
[7]
  AC50: > 20 µM (inactive)
Caspase-6
  AC50: 33.3 µM (active)
[8]
  IC50: 76.7 µM (inactive)
Large T antigen
  IC50: 59.3 µM (active)
Genome polyprotein
  IC50: 20.4 µM (active)

## CC(C)(C)OC(=O)N(Cc1ccccc1)Cc1cccc(OCc2cccc(NC(=O)c3ccccc3)c2)c1
[4]
  CC50: > 40 µM (active)
Protein Tat
  IC50: > 100 µM (active)

## COc1ccccc1NC(=O)N1CCCCN2[C@H](C1)[C@@H](c1ccc(-c3cccc(C#N)c3)cc1)[C@@H]2CO
[9]
  AC50: 23.2 µM (active)
[10]
  AC50: > 70 µM (inactive)
Paired box protein Pax-8
  AC50: 11.6 µM (active)

## CC(=O)[C@]1(O)Cc2c(O)c3c(c(O)c2[C@@H](O[C@H]2C[C@H](N)[C@H](O)[C@H](C)O2)C1)C(=O)c1ccccc1C3=O [IDARUBICIN HYDROCHLORIDE]
[5]
  IC50: 0.0111 µM (active)
Streptococcus
  EC50: 2.6 µM (active)
[6]
  IC50: > 10 µM (inactive)
[11]
  EC50: > 38 µM (not active)
[12]
  EC50: 1.07 µM (active)
[13]
  EC50: 3.01 µM (inconclusive)
[14]
  EC50: 0.178 µM (inconclusive)
Streptokinase A
  EC50: > 150 µM (not active)
